Tests used:
SW-620 cells = test: MTT assay, photodynamic therapy on SW-620 cells; assay type: cell-based, human
Description: (§1) The cells in logarithmic growth phase were collected and inoculated on 24-well culture plates. When reaching 70%-80% confluence, cells were divided randomly into the following groups: control (the parallel control group without photosensitizer and irradiation), irradiation (irradiation treatment alone without photosensitizer); (photosensitizer treatment alone without irradiation), photodynamic treatment (treatment by photosensitizer in combination with irradiation). For the photosensitizer alone treatment group and photodynamic treatment group, an appropriate amount of Photohexer-1 (P-1) or Photohexer-2 (P-2) was respectively added away from light to give a final concentration of 0.8, 1.6, 3.2, 6.4 μM. Each group set 3 replicates. Cells were incubated with the active agent, different treatments were carried out according to the grouping. […] After treatment and digestion of each group of cells, it was inoculated into a 96-well plate at 100 μL/well, and four wells were set for each treatment. MTT assay was performed after 24 h from inoculation: 20 μL MTT solution was added to each well under the condition away from light, and the culture was continued for 4 hours. 150 μL DMSO was added to each well after discarding the supernatant. After 15 min of dissolution, the absorbance value (OD value) was measured using a microplate reader and the relative survival rate of cells was calculated according to the following formula: […]

MCF-7 cells = test: MTT assay, photodynamic therapy on MCF-7 cells; assay type: cell-based, human
Description: as §1

Caco2 cells = test: MTT assay, photodynamic therapy on Caco2 cells; assay type: cell-based, human
Description: as §1

SGC7901 cells = test: MTT assay, photodynamic therapy on SGC7901 cells; assay type: cell-based, human
Description: as §1

MCF-7/ADR cells = test: MTT assay, photodynamic therapy on MCF-7/ADR cells; assay type: cell-based, human
Description: as §1

7721 cells = test: MTT assay, photodynamic therapy on 7721 cells; assay type: cell-based, human
Description: as §1

CT26 cells = test: MTT assay, photodynamic therapy on CT26 cells; assay type: cell-based, murine
Description: as §1

[1] = Storage stability determination; assay type: physicochemical; details: 3 months of storage in dark at 2-4
Method: The storage stability of Photohexer-1 and Photohexer-2 was determined by conventional methods in the art.

[2] = Solubility determination in water; assay type: physicochemical; details: each ml of water; room temperature; read-out: solubility in water (amount dissolved by each ml of water)
Method: The solubility of Photohexer-1 and Photohexer-2 in water was determined by conventional methods in the art.

[3] = 0.8 μM alone treatment, without irradiation
[4] = 0.8 μM combined with 2.6 J/cm^2 light irradiation
[5] = 0.8 μM combined with 5.2 J/cm^2 light irradiation
[6] = 0.8 μM combined with 10.4 J/cm^2 light irradiation
[7] = 1.6 μM alone treatment, without irradiation
[8] = 1.6 μM combined with 2.6 J/cm^2 light irradiation
[9] = 1.6 μM combined with 5.2 J/cm^2 light irradiation
[10] = 1.6 μM combined with 10.4 J/cm^2 light irradiation
[11] = 3.2 μM alone treatment, without irradiation
[12] = 3.2 μM combined with 2.6 J/cm^2 light irradiation
[13] = 3.2 μM combined with 5.2 J/cm^2 light irradiation
[14] = 3.2 μM combined with 10.4 J/cm^2 light irradiation
[15] = 6.4 μM alone treatment, without irradiation
[16] = 6.4 μM combined with 2.6 J/cm^2 light irradiation
[17] = 6.4 μM combined with 5.2 J/cm^2 light irradiation
[18] = 6.4 μM combined with 10.4 J/cm^2 light irradiation

C=Cc1c(C)c2cc3nc(cc4[nH]c(cc5nc(cc1[nH]2)C(C)=C5C(C)OCCCCCC)c(C)c4CCC(=O)[O-])C(CCC(=O)[O-])=C3C.[Na+].[Na+] (stereo not drawn) [Photohexer P-2, 4-(1-hexyloxyethyl)-6,7-bis(propionatesodium)-1,3,5,8-tetramethyl-2-vinylporphyrin]
Cell survival rate (SW-620 cells; [3]): 101.79 ± 4.27%
Cell survival rate (SW-620 cells; [4]): 97.58 ± 3.86%
Cell survival rate (SW-620 cells; [5]): 96.11 ± 4.06%
Cell survival rate (SW-620 cells; [6]): 92.99 ± 3.86%
Cell survival rate (SW-620 cells; [7]): 96.58 ± 3.66%
Cell survival rate (SW-620 cells; [8]): 94.77 ± 2.99%
Cell survival rate (SW-620 cells; [9]): 90.19 ± 3.18%
Cell survival rate (SW-620 cells; [10]): 84.95 ± 3.02%
Cell survival rate (SW-620 cells; [11]): 93.16 ± 2.71%
Cell survival rate (SW-620 cells; [12]): 89.07 ± 2.34%
Cell survival rate (SW-620 cells; [13]): 82.00 ± 2.62%
Cell survival rate (SW-620 cells; [14]): 68.54 ± 2.77%
Cell survival rate (SW-620 cells; [15]): 85.21 ± 1.03%
Cell survival rate (SW-620 cells; [16]): 66.83 ± 1.12%
Cell survival rate (SW-620 cells; [17]): 58.46 ± 1.23%
Cell survival rate (SW-620 cells; [18]): 47.12 ± 1.04%
Cell survival rate (MCF-7 cells; [3]): 98.46 ± 4.62%
Cell survival rate (MCF-7 cells; [4]): 89.08 ± 3.99%
Cell survival rate (MCF-7 cells; [5]): 76.83 ± 4.26%
Cell survival rate (MCF-7 cells; [6]): 72.40 ± 4.14%
Cell survival rate (MCF-7 cells; [7]): 84.93 ± 3.16%
Cell survival rate (MCF-7 cells; [8]): 65.11 ± 2.73%
Cell survival rate (MCF-7 cells; [9]): 48.15 ± 3.12%
Cell survival rate (MCF-7 cells; [10]): 41.81 ± 3.77%
Cell survival rate (MCF-7 cells; [11]): 82.94 ± 2.28%
Cell survival rate (MCF-7 cells; [12]): 51.79 ± 2.10%
Cell survival rate (MCF-7 cells; [13]): 44.80 ± 2.22%
Cell survival rate (MCF-7 cells; [14]): 34.81 ± 2.43%
Cell survival rate (MCF-7 cells; [15]): 80.23 ± 1.03%
Cell survival rate (MCF-7 cells; [16]): 40.31 ± 1.02%
Cell survival rate (MCF-7 cells; [17]): 35.46 ± 1.02%
Cell survival rate (MCF-7 cells; [18]): 26.14 ± 1.07%
Cell survival rate (Caco2 cells; [3]): 99.09 ± 4.27%
Cell survival rate (Caco2 cells; [4]): 98.47 ± 3.69%
Cell survival rate (Caco2 cells; [5]): 98.57 ± 4.26%
Cell survival rate (Caco2 cells; [6]): 73.07 ± 3.86%
Cell survival rate (Caco2 cells; [7]): 98.50 ± 3.63%
Cell survival rate (Caco2 cells; [8]): 88.31 ± 2.67%
Cell survival rate (Caco2 cells; [9]): 77.26 ± 3.66%
Cell survival rate (Caco2 cells; [10]): 58.33 ± 2.60%
Cell survival rate (Caco2 cells; [11]): 94.12 ± 2.54%
Cell survival rate (Caco2 cells; [12]): 75.55 ± 2.01%
Cell survival rate (Caco2 cells; [13]): 63.08 ± 2.35%
Cell survival rate (Caco2 cells; [14]): 47.94 ± 2.31%
Cell survival rate (Caco2 cells; [15]): 88.45 ± 1.44%
Cell survival rate (Caco2 cells; [16]): 64.87 ± 1.13%
Cell survival rate (Caco2 cells; [17]): 43.88 ± 1.14%
Cell survival rate (Caco2 cells; [18]): 37.06 ± 1.54%
killing effect of photodynamic therapy (Caco2 cells; dependent on concentration and light intensity): good killing effect
photodynamic activity compared between P-1 and P-2 (SGC7901 cells): better than P-1
Cell survival rate (SGC7901 cells; [3]): 100.80 ± 0.91%
Cell survival rate (SGC7901 cells; [4]): 83.27 ± 0.82%
Cell survival rate (SGC7901 cells; [5]): 76.47 ± 1.65%
Cell survival rate (SGC7901 cells; [6]): 66.13 ± 0.60%
Cell survival rate (SGC7901 cells; [7]): 97.25 ± 1.34%
Cell survival rate (SGC7901 cells; [8]): 70.77 ± 7.19%
Cell survival rate (SGC7901 cells; [9]): 60.00 ± 9.82%
Cell survival rate (SGC7901 cells; [10]): 49.32 ± 12.57%
Cell survival rate (SGC7901 cells; [11]): 82.72 ± 0.54%
Cell survival rate (SGC7901 cells; [12]): 52.91 ± 1.96%
Cell survival rate (SGC7901 cells; [13]): 41.72 ± 0.35%
Cell survival rate (SGC7901 cells; [14]): 34.58 ± 0.66%
killing effect of photodynamic therapy (SGC7901 cells; drug-dose and light-intensity dependent): obvious killing effect
cell toxicity (MCF-7/ADR cells): significant cell toxicity
Cell survival rate (MCF-7/ADR cells; [3]): 96.93 ± 4.47%
Cell survival rate (MCF-7/ADR cells; [4]): 94.88 ± 3.94%
Cell survival rate (MCF-7/ADR cells; [5]): 92.76 ± 4.32%
Cell survival rate (MCF-7/ADR cells; [6]): 90.99 ± 4.36%
Cell survival rate (MCF-7/ADR cells; [7]): 92.26 ± 3.26%
Cell survival rate (MCF-7/ADR cells; [8]): 74.79 ± 2.77%
Cell survival rate (MCF-7/ADR cells; [9]): 67.82 ± 3.12%
Cell survival rate (MCF-7/ADR cells; [10]): 54.66 ± 3.43%
Cell survival rate (MCF-7/ADR cells; [11]): 53.84 ± 2.58%
Cell survival rate (MCF-7/ADR cells; [12]): 50.37 ± 2.13%
Cell survival rate (MCF-7/ADR cells; [13]): 48.99 ± 2.16%
Cell survival rate (MCF-7/ADR cells; [14]): 46.57 ± 2.76%
Cell survival rate (MCF-7/ADR cells; [15]): 48.88 ± 1.13%
Cell survival rate (MCF-7/ADR cells; [16]): 43.68 ± 1.06%
Cell survival rate (MCF-7/ADR cells; [17]): 41.49 ± 0.96%
Cell survival rate (MCF-7/ADR cells; [18]): 34.75 ± 1.22%
Cell survival rate (7721 cells; [3]): 102.15 ± 4.07%
Cell survival rate (7721 cells; [4]): 98.29 ± 4.01%
Cell survival rate (7721 cells; [5]): 96.77 ± 3.76%
Cell survival rate (7721 cells; [6]): 95.91 ± 3.95%
Cell survival rate (7721 cells; [7]): 101.37 ± 3.36%
Cell survival rate (7721 cells; [8]): 94.78 ± 3.88%
Cell survival rate (7721 cells; [9]): 92.15 ± 3.64%
Cell survival rate (7721 cells; [10]): 91.44 ± 3.73%
Cell survival rate (7721 cells; [11]): 100.64 ± 2.98%
Cell survival rate (7721 cells; [12]): 92.15 ± 3.76%
Cell survival rate (7721 cells; [13]): 89.23 ± 3.35%
Cell survival rate (7721 cells; [14]): 78.32 ± 3.19%
Cell survival rate (7721 cells; [15]): 98.14 ± 2.53%
Cell survival rate (7721 cells; [16]): 88.02 ± 3.59%
Cell survival rate (7721 cells; [17]): 82.25 ± 2.79%
Cell survival rate (7721 cells; [18]): 71.15 ± 2.91%
toxicity alone (7721 cells; alone, without irradiation): no significant toxicity
cell toxicity with light (7721 cells; combination with a certain amount of light): stronger cell toxicity
photoactivity compared between P-1 and P-2 (CT26 cells): stronger than that of P-1
Cell survival rate (CT26 cells; [3]): 94.08 ± 4.27%
Cell survival rate (CT26 cells; [4]): 83.97 ± 3.96%
Cell survival rate (CT26 cells; [5]): 82.55 ± 4.77%
Cell survival rate (CT26 cells; [6]): 70.66 ± 4.66%
Cell survival rate (CT26 cells; [7]): 92.09 ± 3.56%
Cell survival rate (CT26 cells; [8]): 61.29 ± 2.78%
Cell survival rate (CT26 cells; [9]): 49.85 ± 3.55%
Cell survival rate (CT26 cells; [10]): 38.89 ± 3.86%
Cell survival rate (CT26 cells; [11]): 76.30 ± 2.28%
Cell survival rate (CT26 cells; [12]): 44.29 ± 2.41%
Cell survival rate (CT26 cells; [13]): 39.69 ± 2.27%
Cell survival rate (CT26 cells; [14]): 26.01 ± 2.38%
Cell survival rate (CT26 cells; [15]): 50.49 ± 1.03%
Cell survival rate (CT26 cells; [16]): 34.11 ± 1.02%
Cell survival rate (CT26 cells; [17]): 28.61 ± 1.09%
Cell survival rate (CT26 cells; [18]): 18.82 ± 1.01%
storage stability (content change by HPLC test) [1]: no content change
solubility [2]: ~10000 µg/mL

From patent US20170252442A1, “PHOTOHEXER COMPOUNDS AND PHARMACEUTICAL COMPOSITION AND USE THEREOF” (RAINBOW PHARMATECH LLC, priority 2014, published 2017)
